“And” between values parts separate entries of the source, which are not always exact repeats. Identical values can stand only once. Like-named read-outs stand apart in the source and are kept apart here.

Common to all, as to assay: Kinase activity test (ReactionBiology), % enzyme activity relative to DMSO
Assay type in all cases: biochemical

One experiment has as its target T1, DAPK1 (Homo sapiens, UniProt P53355).
T1 construct: purchased ReactionBiology

For another experiment, the target named is T2, EPHB4 (Homo sapiens, UniProt P54760).
T2 construct: purchased ReactionBiology
T2 sequence (P54760 16-987): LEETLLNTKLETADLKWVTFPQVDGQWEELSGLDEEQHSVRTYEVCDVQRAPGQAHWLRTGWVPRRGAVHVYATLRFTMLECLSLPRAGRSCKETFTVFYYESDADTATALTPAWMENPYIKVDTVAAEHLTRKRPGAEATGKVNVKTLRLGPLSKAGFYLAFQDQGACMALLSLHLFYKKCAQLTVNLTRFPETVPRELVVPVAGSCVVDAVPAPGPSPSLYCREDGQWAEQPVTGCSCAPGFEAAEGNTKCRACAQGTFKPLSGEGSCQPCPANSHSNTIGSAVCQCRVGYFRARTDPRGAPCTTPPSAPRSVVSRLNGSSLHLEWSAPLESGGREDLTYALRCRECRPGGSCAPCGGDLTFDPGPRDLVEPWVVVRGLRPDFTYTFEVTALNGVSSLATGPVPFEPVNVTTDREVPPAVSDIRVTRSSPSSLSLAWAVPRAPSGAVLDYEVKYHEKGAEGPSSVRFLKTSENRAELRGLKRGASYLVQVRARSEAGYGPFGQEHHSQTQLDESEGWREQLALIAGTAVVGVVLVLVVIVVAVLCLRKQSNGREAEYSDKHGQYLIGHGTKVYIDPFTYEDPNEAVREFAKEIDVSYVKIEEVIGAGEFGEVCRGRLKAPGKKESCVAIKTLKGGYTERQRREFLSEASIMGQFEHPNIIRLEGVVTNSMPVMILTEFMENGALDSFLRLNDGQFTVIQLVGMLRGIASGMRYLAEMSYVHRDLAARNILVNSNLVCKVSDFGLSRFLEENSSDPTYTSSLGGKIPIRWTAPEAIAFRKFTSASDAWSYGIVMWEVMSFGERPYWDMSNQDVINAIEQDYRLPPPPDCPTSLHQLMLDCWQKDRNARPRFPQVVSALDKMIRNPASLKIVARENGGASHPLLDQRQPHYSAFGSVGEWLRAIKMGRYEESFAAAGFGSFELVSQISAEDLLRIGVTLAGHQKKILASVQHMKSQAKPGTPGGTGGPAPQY

Another experiment concerns the target T3, CK1d (Homo sapiens, UniProt P48730).
T3 construct: purchased ReactionBiology

The next experiment concerns the target VEGFR2 (Homo sapiens, UniProt P35968). The arrangement: purchased ReactionBiology.
The mark [1] stands for this setting: DAPK1, 1 uM, Average, read-out: % Enzyme Activity (relative to DMSO controls), Average.
Where [2] appears, read: DAPK1, 1 uM, replicate Data 1, read-out: % Enzyme Activity (relative to DMSO controls), Data 1.
Where [3] appears, read: DAPK1, 1 uM, replicate Data 2, read-out: % Enzyme Activity (relative to DMSO controls), Data 2.
The mark [4] stands for this setting: DAPK1, 10 uM, Average, read-out: % Enzyme Activity (relative to DMSO controls), Average.
Where [5] appears, read: DAPK1, 10 uM, replicate Data 1, read-out: % Enzyme Activity (relative to DMSO controls), Data 1.
[6] abbreviates: DAPK1, 10 uM, replicate Data 2, read-out: % Enzyme Activity (relative to DMSO controls), Data 2.
Where [7] appears, read: EPHB4, 1 uM, Average, read-out: % Enzyme Activity (relative to DMSO controls), Average.
[8] abbreviates: EPHB4, 1 uM, replicate Data 1, read-out: % Enzyme Activity (relative to DMSO controls), Data 1.
The mark [9] stands for this setting: EPHB4, 1 uM, replicate Data 2, read-out: % Enzyme Activity (relative to DMSO controls), Data 2.
Where [10] appears, read: EPHB4, 10 uM, Average, read-out: % Enzyme Activity (relative to DMSO controls), Average.
[11] abbreviates: EPHB4, 10 uM, replicate Data 1, read-out: % Enzyme Activity (relative to DMSO controls), Data 1.
The mark [12] stands for this setting: EPHB4, 10 uM, replicate Data 2, read-out: % Enzyme Activity (relative to DMSO controls), Data 2.
Where [13] appears, read: read-out: % Enzyme Activity (relative to DMSO controls), Average.
Setting [14] is: read-out: % Enzyme Activity (relative to DMSO controls), Data 1.
The mark [15] stands for this setting: read-out: % Enzyme Activity (relative to DMSO controls), Data 2.

Sequence of VEGFR2 (P35968 20-1356): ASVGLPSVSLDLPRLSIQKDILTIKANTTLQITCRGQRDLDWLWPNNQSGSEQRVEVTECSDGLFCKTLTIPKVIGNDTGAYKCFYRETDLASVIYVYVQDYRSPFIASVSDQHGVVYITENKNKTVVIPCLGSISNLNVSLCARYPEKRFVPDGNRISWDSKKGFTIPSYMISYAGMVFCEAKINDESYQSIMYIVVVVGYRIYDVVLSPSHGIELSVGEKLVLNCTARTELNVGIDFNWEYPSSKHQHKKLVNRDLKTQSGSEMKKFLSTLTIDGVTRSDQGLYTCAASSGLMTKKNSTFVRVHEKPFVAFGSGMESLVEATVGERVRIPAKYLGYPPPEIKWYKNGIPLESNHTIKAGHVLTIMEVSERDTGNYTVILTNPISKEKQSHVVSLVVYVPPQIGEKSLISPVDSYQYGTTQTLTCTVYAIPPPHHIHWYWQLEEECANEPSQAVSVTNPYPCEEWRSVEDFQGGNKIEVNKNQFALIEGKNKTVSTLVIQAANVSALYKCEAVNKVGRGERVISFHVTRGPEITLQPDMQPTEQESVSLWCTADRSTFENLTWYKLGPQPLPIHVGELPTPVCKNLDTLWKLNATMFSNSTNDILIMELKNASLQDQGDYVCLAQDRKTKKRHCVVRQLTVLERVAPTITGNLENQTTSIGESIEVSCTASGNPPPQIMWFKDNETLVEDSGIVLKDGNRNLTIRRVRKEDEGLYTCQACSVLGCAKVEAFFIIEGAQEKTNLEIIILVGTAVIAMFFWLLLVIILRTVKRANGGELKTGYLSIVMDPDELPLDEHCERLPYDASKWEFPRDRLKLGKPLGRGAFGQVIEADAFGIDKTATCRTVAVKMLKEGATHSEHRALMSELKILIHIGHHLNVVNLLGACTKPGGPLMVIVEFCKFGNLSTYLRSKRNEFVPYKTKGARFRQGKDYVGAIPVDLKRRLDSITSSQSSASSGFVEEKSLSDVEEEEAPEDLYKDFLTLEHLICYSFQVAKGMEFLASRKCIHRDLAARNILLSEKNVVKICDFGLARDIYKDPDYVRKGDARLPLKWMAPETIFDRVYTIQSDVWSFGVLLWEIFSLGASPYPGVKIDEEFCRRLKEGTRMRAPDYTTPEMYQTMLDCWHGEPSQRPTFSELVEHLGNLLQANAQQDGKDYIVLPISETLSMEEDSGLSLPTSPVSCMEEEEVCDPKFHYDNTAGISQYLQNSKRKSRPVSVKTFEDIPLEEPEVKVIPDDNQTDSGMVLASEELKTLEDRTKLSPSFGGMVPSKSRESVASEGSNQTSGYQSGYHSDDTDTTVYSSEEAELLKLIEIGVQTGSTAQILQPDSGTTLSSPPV
T3 sequence (P48730 whole entry): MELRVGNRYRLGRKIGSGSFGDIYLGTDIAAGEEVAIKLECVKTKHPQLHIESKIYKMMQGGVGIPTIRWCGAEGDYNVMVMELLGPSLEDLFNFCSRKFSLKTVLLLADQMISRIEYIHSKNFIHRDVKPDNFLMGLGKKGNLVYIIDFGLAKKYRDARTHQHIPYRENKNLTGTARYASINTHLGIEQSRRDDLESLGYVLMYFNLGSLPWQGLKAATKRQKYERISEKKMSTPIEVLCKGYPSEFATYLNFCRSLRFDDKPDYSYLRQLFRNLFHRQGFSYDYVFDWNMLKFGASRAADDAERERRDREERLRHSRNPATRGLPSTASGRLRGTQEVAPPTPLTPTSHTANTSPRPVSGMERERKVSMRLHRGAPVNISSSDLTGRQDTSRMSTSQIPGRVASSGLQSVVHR
T1 sequence (P53355 whole entry): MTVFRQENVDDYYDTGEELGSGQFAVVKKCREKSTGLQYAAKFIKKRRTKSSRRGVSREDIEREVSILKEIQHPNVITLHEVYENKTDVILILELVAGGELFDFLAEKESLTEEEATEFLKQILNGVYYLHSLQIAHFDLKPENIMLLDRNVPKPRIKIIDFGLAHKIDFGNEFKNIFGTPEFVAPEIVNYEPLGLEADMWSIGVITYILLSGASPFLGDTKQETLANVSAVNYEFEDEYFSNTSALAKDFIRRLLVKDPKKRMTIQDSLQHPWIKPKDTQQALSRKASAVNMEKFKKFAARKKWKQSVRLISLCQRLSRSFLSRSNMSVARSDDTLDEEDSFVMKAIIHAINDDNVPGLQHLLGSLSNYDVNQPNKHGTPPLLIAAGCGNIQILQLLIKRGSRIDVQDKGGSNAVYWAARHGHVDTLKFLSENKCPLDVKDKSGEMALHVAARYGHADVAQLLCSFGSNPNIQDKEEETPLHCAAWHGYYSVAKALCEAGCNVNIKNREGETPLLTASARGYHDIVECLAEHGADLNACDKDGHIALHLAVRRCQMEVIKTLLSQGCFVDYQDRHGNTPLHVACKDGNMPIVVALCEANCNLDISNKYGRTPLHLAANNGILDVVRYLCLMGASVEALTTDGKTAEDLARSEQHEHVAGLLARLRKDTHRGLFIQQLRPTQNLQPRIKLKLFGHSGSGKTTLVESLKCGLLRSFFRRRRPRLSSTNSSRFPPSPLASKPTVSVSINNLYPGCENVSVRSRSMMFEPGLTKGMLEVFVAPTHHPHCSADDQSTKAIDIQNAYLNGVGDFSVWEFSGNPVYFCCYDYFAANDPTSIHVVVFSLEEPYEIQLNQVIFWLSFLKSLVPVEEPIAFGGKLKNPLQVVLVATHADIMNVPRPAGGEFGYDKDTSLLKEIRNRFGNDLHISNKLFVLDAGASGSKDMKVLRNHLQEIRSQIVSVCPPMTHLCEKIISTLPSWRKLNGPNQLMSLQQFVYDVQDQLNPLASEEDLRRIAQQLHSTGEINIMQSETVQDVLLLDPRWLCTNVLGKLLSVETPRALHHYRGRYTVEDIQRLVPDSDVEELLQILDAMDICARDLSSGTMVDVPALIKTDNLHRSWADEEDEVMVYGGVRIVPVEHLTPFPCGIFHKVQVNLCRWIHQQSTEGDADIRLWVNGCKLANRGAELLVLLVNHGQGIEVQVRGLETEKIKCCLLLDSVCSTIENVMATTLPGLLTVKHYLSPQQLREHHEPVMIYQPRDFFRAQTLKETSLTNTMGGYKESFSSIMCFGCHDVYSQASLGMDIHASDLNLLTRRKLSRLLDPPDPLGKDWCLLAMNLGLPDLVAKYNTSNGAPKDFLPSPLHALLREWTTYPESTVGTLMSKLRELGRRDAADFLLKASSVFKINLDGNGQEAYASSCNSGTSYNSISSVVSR

As for `CS(=O)(=O)c1ccc(C2=C(c3ccccc3)C(=O)OC2)cc1` [Rofecoxib], the “% Enzyme Activity (relative to DMSO controls), Average” value on DAPK1 (DAPK1, 1 uM, Average) is 107.94%; at DAPK1 (DAPK1, 10 uM, Average), 91.65%; on EPHB4 (EPHB4, 1 uM, Average), 93.84%; on EPHB4 (EPHB4, 10 uM, Average), 82.31%. Moreover, the “% Enzyme Activity (relative to DMSO controls), Data 1” value is 111.72% on DAPK1 (DAPK1, 1 uM, replicate Data 1); 92.47% at DAPK1 (DAPK1, 10 uM, replicate Data 1); 92.91% at EPHB4 (EPHB4, 1 uM, replicate Data 1); 77.99% on EPHB4 (EPHB4, 10 uM, replicate Data 1). Further, the “% Enzyme Activity (relative to DMSO controls), Data 2” value was determined as 104.16% on DAPK1 (DAPK1, 1 uM, replicate Data 2); 90.82% on DAPK1 (DAPK1, 10 uM, replicate Data 2); 94.77% on EPHB4 (EPHB4, 1 uM, replicate Data 2); 86.63% on EPHB4 (EPHB4, 10 uM, replicate Data 2).
On to `NCCCCCC(=O)O` [Aminocaproic acid], for which the remaining activity at 1 µM on DAPK1 (setting [1]) was found to be 114%; on DAPK1 (setting [2]), 116%; on DAPK1 (setting [3]), 112%; at CK1d (CK1d, 1 uM, Average, read-out: % Enzyme Activity (relative to DMSO controls), Average), 118%; on CK1d (CK1d, 1 uM, replicate Data 1, read-out: % Enzyme Activity (relative to DMSO controls), Data 1), 116%; at CK1d (CK1d, 1 uM, replicate Data 2, read-out: % Enzyme Activity (relative to DMSO controls), Data 2) it was 120%. Further, the remaining activity at 1 µM came out at 103% on EPHB4 (setting [7]), 103% on EPHB4 (setting [8]) and 104% on EPHB4 (setting [9]). The remaining activity at 10 µM was found to be 110% on DAPK1 (setting [4]); 109% on DAPK1 (setting [5]); 111% at DAPK1 (setting [6]); 125% at CK1d (CK1d, 10 uM, Average, read-out: % Enzyme Activity (relative to DMSO controls), Average); 122% at CK1d (CK1d, 10 uM, replicate Data 1, read-out: % Enzyme Activity (relative to DMSO controls), Data 1); 127% on CK1d (CK1d, 10 uM, replicate Data 2, read-out: % Enzyme Activity (relative to DMSO controls), Data 2). For the same compound, the remaining activity at 10 µM at EPHB4 (setting [10]) was found to be 93.5%; on EPHB4 (setting [11]) it was 92.2%; at EPHB4 (setting [12]), 94.7%.
In the case of `COc1cc2c(c(OC)c1OC)-c1ccc(OC)c(=O)cc1[C@@H](NC(C)=O)CC2` [Colchicine], the “% Enzyme Activity (relative to DMSO controls), Data 2” value is 111.85% on DAPK1 (DAPK1, 1 uM, replicate Data 2); 96.44% on DAPK1 (DAPK1, 10 uM, replicate Data 2); 111.97% at CK1d (CK1d, 10 uM, replicate Data 2); 106.52% on EPHB4 (EPHB4, 1 uM, replicate Data 2); 99.11% on EPHB4 (EPHB4, 10 uM, replicate Data 2); 110.08% on VEGFR2 (VEGFR2, 1 uM, replicate Data 2). In addition, the “% Enzyme Activity (relative to DMSO controls), Data 2” value on VEGFR2 (VEGFR2, 10 uM, replicate Data 2) is given as 105.23%.
Regarding `CC(C)c1cccc(C(C)C)c1O` [Propofol, reference compound], the remaining activity at 1 µM at DAPK1 (setting [13]) is 107%; on DAPK1 (setting [14]), 113%; on DAPK1 (setting [15]), 102%; on CK1d (setting [13]) it was 126%; at CK1d (setting [14]), 145%; at CK1d (setting [15]), 108%. Moreover, the remaining activity at 1 µM at EPHB4 (setting [13]) turned out to be 67%; at EPHB4 (setting [14]), 76%; on EPHB4 (setting [15]), 57.9%; on EPHB4 (read-out: % Enzyme activity at 1μM), 67%. In addition, the remaining activity at 10 µM turned out to be 86.5% on DAPK1 (setting [13]); 86.4% on DAPK1 (setting [14]); 86.5% at DAPK1 (setting [15]); 112% at CK1d (setting [13]); 116% on CK1d (setting [14]); 108% at CK1d (setting [15]). Moreover, the remaining activity at 10 µM on EPHB4 (setting [13]) was 68.4%; at EPHB4 (setting [14]), 68.4%; on EPHB4 (setting [15]), 68.5%; at EPHB4 (read-out: % Enzyme activity at 10μM), 68.4%.
On to `Nc1c2c(nc3ccccc13)CCCC2` [Tacrine], for which the “% Enzyme Activity (relative to DMSO controls), Data 2” value at CK1d was 118.35%; on EPHB4, 73.14% and 73.39%; at VEGFR2, 94.26% and 99.54%.
Take `CC(C)c1nc(CN(C)C(=O)N[C@H](C(=O)N[C@@H](Cc2ccccc2)C[C@H](O)[C@H](Cc2ccccc2)NC(=O)OCc2cncs2)C(C)C)cs1` [Ritonavir, reference compound]: the remaining activity at 1 µM is 92.6% on DAPK1 (setting [1]); 94.8% at DAPK1 (setting [2]); 90.4% at DAPK1 (setting [3]); 92.6% at DAPK1 (DAPK1, compound 1μM, relative to DMSO controls, read-out: % Enzyme activity at 1μM); 99.2% on EPHB4 (setting [7]); 99.5% at EPHB4 (setting [8]). Further, the remaining activity at 1 µM at EPHB4 (setting [9]) came to 98.9%; at VEGFR2 (VEGFR2, 1 uM, Average, read-out: % Enzyme Activity (relative to DMSO controls), Average), 111%; at VEGFR2 (VEGFR2, 1 uM, replicate Data 1, read-out: % Enzyme Activity (relative to DMSO controls), Data 1), 111%; on VEGFR2 (VEGFR2, 1 uM, replicate Data 2, read-out: % Enzyme Activity (relative to DMSO controls), Data 2), 112%. Moreover, the remaining activity at 10 µM at DAPK1 (setting [4]) worked out at 38.5%; on DAPK1 (setting [5]) it was 39.2%; at DAPK1 (setting [6]), 37.7%; on DAPK1 (DAPK1, compound 10μM, relative to DMSO controls, read-out: % Enzyme activity at 10μM), 38.5%; at EPHB4 (setting [10]), 95.1%; at EPHB4 (setting [11]) it was 97.2%. The remaining activity at 10 µM is 93.1% on EPHB4 (setting [12]); 109% on VEGFR2 (VEGFR2, 10 uM, Average, read-out: % Enzyme Activity (relative to DMSO controls), Average); 113% at VEGFR2 (VEGFR2, 10 uM, replicate Data 1, read-out: % Enzyme Activity (relative to DMSO controls), Data 1); 106% on VEGFR2 (VEGFR2, 10 uM, replicate Data 2, read-out: % Enzyme Activity (relative to DMSO controls), Data 2).
Turning to `Cc1ccc(-c2cc(C(F)(F)F)nn2-c2ccc(S(N)(=O)=O)cc2)cc1` [Celecoxib], the “% Enzyme Activity (relative to DMSO controls), Average” value at CK1d (CK1d, 1 uM, Average) was 94.68%; at EPHB4 (EPHB4, 1 uM, Average) it was 103.20%; at EPHB4 (EPHB4, 10 uM, Average), 99.23%; on VEGFR2 (VEGFR2, 1 uM, Average), 113.33%; on VEGFR2 (VEGFR2, 10 uM, Average), 110.02%.
As to `CN1CCC[C@H]1c1cccnc1` [Nicotine], at DAPK1, the “% Enzyme Activity (relative to DMSO controls), Average” value is 100.32% and 100.82%; the “% Enzyme Activity (relative to DMSO controls), Data 1” value was 100.9% and 106.33%; the “% Enzyme Activity (relative to DMSO controls), Data 2” value is 99.74% and 95.31%. In addition, on EPHB4, the “% Enzyme Activity (relative to DMSO controls), Average” value was 98.32% and 87.80%; the “% Enzyme Activity (relative to DMSO controls), Data 1” value was 99.28% and 89.89%; the “% Enzyme Activity (relative to DMSO controls), Data 2” value is 97.35% and 85.7%.
